The subject of series [1] is rats. Put plainly: Gradual hypotension during anesthesia in rats. Format: in vivo, male SD rats. Conditions: rat, enflurane. The protocol:
Male SD rats (Charles River Japan Inc.) were anesthetized with intravenous thiopental 50 mg/kg as a bolus, followed by 1% enflurane in air.
A femoral artery was catheterized to monitor the blood pressure and heart rate, while a femoral vein was catheterized for the administration of each of the test drugs.
(§1) The control values were obtained before the administration of each test drug. Each test drug was then administered using a syringe in a dose-dependent manner for 15 minutes. The percentage (%) of the decrease of blood pressure was determined when stabilized. Changes in heart rate (H.R.) at the administration of each test drug were measured. Furthermore,the recovery of mean blood pressure after intravenous infusion of each test drug was also determined from the decrease in heart rate and the blood pressure at a maximum dose of each test drug.

The subject of a further series is dogs. Kind of series: Gradual hypotension during anesthesia in dogs (hemodynamics, blood gas). Format: in vivo, mongrel dogs. Conditions: dog; for Arterial Carbonate Tension PaCO2 / Arterial Oxygen Tension PaO2 / Arterial pH (pH-a) / Body Temperature BT / Cardiac Output C.O. / Central Venous Pressure CVP / Dose / Heart Rate H.R. / Hematocrit Value Hct / Mean Blood Pressure B.P. (mean) / Mean Blood Pressure B.P. (Δ%) / Mixed Venous Carbonate Tension PvCO2 / Mixed Venous Oxygen Tension PvO2 / Mixed Venous pH (pH-v) / Pulmonary Artery Pressure PAM / Pulmonary Capillary Wedge Pressure PCWP: enflurane. The protocol:
Dogs were anesthetized with enflurane. […] The mean blood pressure (B.P.), heart rate (H.R.), cardiac output (C.O.), arterial oxygen tension (PaO2), mixed venos oxygen tension (PvO2), arterial carbonate tension (PaCO2), mixed venous carbonate tension (PvCO2), arterial pH (pH-a), mixed venous pH (pH-v), and base excess thereof were measured.
Mongrel dogs weighing 9 to 17 kg were anesthetized with intravenous thiopental 20 mg/kg by bolus injection, followed by 1% enflurane in 40% O2 /N2 after endotracheal intubation. […] Bilateral femoral arteries were catheterized, one for the determination of blood pressure and the other for blood sampling.
Access to the bilateral femoral veins was obtained for the administration of Ap4A, PG E1 or nitroglycerin and for the insertion of a ballon-tipped thermodilution catheter. The electrocardiogram was continuously monitored. The control values were obtained before the administration of each of the above-mentioned three agents. Each agent was administered using a syringe pump at titrated doses to produce gradual 20%, 40%, 50%, 60%, and 80% decreases in the mean arterial pressure (MAP) from the control value.
After the target blood pressure and stable hemodynamic conditions were reached, the following parameters were measured: heart rate (HR), mean pulmonary artery pressure (PAM), pulmonary capillary wedge pressure (PCWP), and central venous pressure (CVP). Cardiac output (CO) was determined by the thermodilution method. Gas analyses of arterial and mixed venous bloods were performed using a blood gas analyzer.

Series [2] relates to rats. Put plainly: Recovery of blood pressure after gradual hypotension in rats. The format is in vivo, male SD rats. Conditions: rat. The protocol: FIG. 1 is a graph showing the recovery of the blood pressure of rats anesthetized with enflurane with time, when each of Ap4A ( ), PG E1 ( ) and nitroglycerin ( ) was used as a test drug to attain gradual hypotension, with the blood pressure before the administration of each test drug being set 100% for reference.
The recovery of blood pressure after gradual hypotension by use of each of Ap4A, PG E1 and nitroglycerin was also tested.
as §1
In a test similar to the above, each of Ap4A, PG E1, and nitroglycerin was administered to rats, so that about 65% fall in blood pressure, about 55% fall in blood pressure, and about 35% fall in blood pressure were stepwise attained. With respect to each agent, the recovery of blood pressure was tested.

Series [3] concerns rabbit platelet aggregation. Kind of series: Inhibitory effect on rabbit platelet aggregation. Format: cell-based. Conditions: rabbit PRP. How it is done:
Fresh blood samples were collected from male Japanese white rabbits weighing 2-3 kg. Blood was anticoagulated with citric acid (1 ml 3.8% citric acid solution +9 ml blood). These samples were centrifuged at room temperature for 20 min at 200×g to obtained platelet-rich plasma (PRP). Furthermore, the supernatant liquid was centrifuged for 10 min at 1500×g to obtained platelet-poor plasma (PPP). Aggregation of platelests was measured photometrically in a Nihon Kohden hema tracer equipped with a mechanical stirring device and with a chart record. At this time, the chart recorder was calibrated as follows: the light transmission obtained with PPP was set as 100% transmission and the optical density of PRP was taken as 0% transmission. Maximal aggregation, i.e. the maximal change in optical density of the primary wave calculated in percent light transmission. From the study, it was determined that ADP, Ap3A, PAF(platelet activating factor) and collagen induced maximal aggregations at a concentration of 1×10^-5 M, 1×10^-4 M, 1.9×10^-7 M and 5 μg/kg, respectively. In the following studies, these aggregating agents were used at maximal dose. The effect of Ap4A on platelet aggregation by ADP and Ap3A were tested. In this time, Ap4A was pretreated for 1 or 10 min before the addition of aggregating agents. Also, after the platelet aggregation was induced by addition of ADP, PAF or collagen to PRP, the platelet aggregate dispersing effect of Ap4A was tested.

For series [4] the following is noted: words, cited from earlier work.

Where two headings read alike, the source gives them in different places.

Take `CCCCC[C@H](O)/C=C/[C@H]1[C@H](O)CC(=O)[C@@H]1CCCCCCC(=O)O` [PG E1, prostaglandin E1, reference compound]: in the series with rats [1] (infusion 0.03 μg/kg/min), the “Blood Pressure (Δ%)” value was found to be 0% and the “Heart Rate (Δ%)” value is 0%. In addition, in the series with rats [1] (infusion 0.1 μg/kg/min), the “Blood Pressure (Δ%)” value is 0% and the “Heart Rate (Δ%)” value is 0%. In the series on rats [1] (infusion 0.3 μg/kg/min), the “Blood Pressure (Δ%)” value is -1.9 ± 1.9% and the “Heart Rate (Δ%)” value was -0.3 ± 0.3%. In the series on rats [1] (infusion 1 μg/kg/min), the “Blood Pressure (Δ%)” value is -9.8 ± 3.1% and the “Heart Rate (Δ%)” value is -1.2 ± 1.4%. Moreover, in the series on rats [1] (infusion 3 μg/kg/min), the “Blood Pressure (Δ%)” value was -26.2 ± 4.0% and the “Heart Rate (Δ%)” value is given as -8.0 ± 3.4%. In the series with rats [1] (infusion 10 μg/kg/min), the “Blood Pressure (Δ%)” value is on record as -48.0 ± 2.7% and the “Heart Rate (Δ%)” value is on record as -13.6 ± 2.9%. For the same compound, in the series with dogs (at -20% blood pressure), the “Arterial Carbonate Tension PaCO2” value was found to be 37.3 ± 1.4 mmHg, the “Arterial Oxygen Tension PaO2” value is 251.6 ± 8.3 mmHg, the “Arterial pH (pH-a)” value is 7.323 ± 0.015 and the “Body Temperature BT” value stood at 37.4 ± 0.6 °C. Besides, in the series with dogs (at -20% blood pressure), the “Cardiac Output C.O.” value is listed as 1.47 ± 0.18 L/min, the “Central Venous Pressure CVP” value came to 3.27 ± 0.59 mmHg, the Dose came out at 1.66 ± 0.48 µg/kg/min and the “Heart Rate H.R.” value was determined as 167.8 ± 8.6 beats/min. Moreover, in the series on dogs (at -20% blood pressure), the “Hematocrit Value Hct” value was determined as 41.5 ± 2.9%, the “Mean Blood Pressure B.P. (mean)” value was determined as 107.2 ± 5.3, the “Mean Blood Pressure B.P. (Δ%)” value was -20.3 ± 0.4% and the “Mixed Venous Carbonate Tension PvCO2” value came out at 41.3 ± 1.3 mmHg. For the same compound, in the series on dogs (at -20% blood pressure), the “Mixed Venous Oxygen Tension PvO2” value came out at 51.0 ± 1.0 mmHg, the “Mixed Venous pH (pH-v)” value is reported as 7.303 ± 0.009, the “Pulmonary Artery Pressure PAM” value is 16.0 ± 3.8 mmHg and the “Pulmonary Capillary Wedge Pressure PCWP” value was determined as 9.0 ± 3.0 mmHg. Moreover, in the series with dogs (at -40% blood pressure), the “Arterial Carbonate Tension PaCO2” value is 36.0 ± 0.7 mmHg, the “Arterial Oxygen Tension PaO2” value was found to be 249.3 ± 6.0 mmHg, the “Arterial pH (pH-a)” value was determined as 7.334 ± 0.012 and the “Body Temperature BT” value is 37.3 ± 0.6 °C. Also, in the series on dogs (at -40% blood pressure), the “Cardiac Output C.O.” value came to 1.20 ± 0.14 L/min, the “Central Venous Pressure CVP” value came to 3.12 ± 0.47 mmHg, the Dose was 3.61 ± 1.01 µg/kg/min and the “Heart Rate H.R.” value came out at 155.5 ± 9.1 beats/min. In addition, in the series on dogs (at -40% blood pressure), the “Hematocrit Value Hct” value is listed as 39.8 ± 3.3%, the “Mean Blood Pressure B.P. (mean)” value is listed as 79.8 ± 4.6, the “Mean Blood Pressure B.P. (Δ%)” value is recorded as -40.7 ± 0.5% and the “Mixed Venous Carbonate Tension PvCO2” value is 39.7 ± 1.0 mmHg. Besides, in the series on dogs (at -40% blood pressure), the “Mixed Venous Oxygen Tension PvO2” value is reported as 50.0 ± 1.9 mmHg, the “Mixed Venous pH (pH-v)” value was 7.286 ± 0.012, the “Pulmonary Artery Pressure PAM” value was found to be 13.3 ± 3.0 mmHg and the “Pulmonary Capillary Wedge Pressure PCWP” value was 6.8 ± 2.1 mmHg. In the series on dogs (at -50% blood pressure), the “Arterial Carbonate Tension PaCO2” value came out at 36.9 ± 1.0 mmHg, the “Arterial Oxygen Tension PaO2” value came out at 251.7 ± 9.3 mmHg, the “Arterial pH (pH-a)” value was determined as 7.303 ± 0.017 and the “Body Temperature BT” value worked out at 37.2 ± 0.6 °C. In the series on dogs (at -50% blood pressure), the “Cardiac Output C.O.” value worked out at 1.17 ± 0.11 L/min, the “Central Venous Pressure CVP” value was 3.48 ± 0.56 mmHg, the Dose came to 4.77 ± 1.14 µg/kg/min and the “Heart Rate H.R.” value turned out to be 143.3 ± 7.3 beats/min. Also, in the series with dogs (at -50% blood pressure), the “Hematocrit Value Hct” value was determined as 40.0 ± 3.5%, the “Mean Blood Pressure B.P. (mean)” value was determined as 67.5 ± 3.4, the “Mean Blood Pressure B.P. (Δ%)” value was -49.8 ± 0.2% and the “Mixed Venous Carbonate Tension PvCO2” value came out at 41.6 ± 0.6 mmHg. Further, in the series with dogs (at -50% blood pressure), the “Mixed Venous Oxygen Tension PvO2” value came to 53.3 ± 4.5 mmHg, the “Mixed Venous pH (pH-v)” value worked out at 7.278 ± 0.015, the “Pulmonary Artery Pressure PAM” value is reported as 12.8 ± 2.7 mmHg and the “Pulmonary Capillary Wedge Pressure PCWP” value is 6.7 ± 2.0 mmHg. In addition, in the series on dogs (at -60% blood pressure), the “Arterial Carbonate Tension PaCO2” value stood at 36.8 ± 1.0 mmHg, the “Arterial Oxygen Tension PaO2” value amounted to 253.2 ± 11.92 mmHg, the “Arterial pH (pH-a)” value was 7.308 ± 0.022 and the “Body Temperature BT” value came to 36.9 ± 0.7 °C. In the series on dogs (at -60% blood pressure), the “Cardiac Output C.O.” value worked out at 1.04 ± 0.10 L/min, the “Central Venous Pressure CVP” value was 3.70 ± 0.76 mmHg, the Dose came out at 5.91 ± 1.49 µg/kg/min and the “Heart Rate H.R.” value is on record as 134.6 ± 7.2 beats/min. In the series with dogs (at -60% blood pressure), the “Hematocrit Value Hct” value was 38.4 ± 4.5%, the “Mean Blood Pressure B.P. (mean)” value was 56.0 ± 4.3, the “Mean Blood Pressure B.P. (Δ%)” value is given as -58.1 ± 1.3% and the “Mixed Venous Carbonate Tension PvCO2” value turned out to be 40.6 ± 1.2 mmHg. In addition, in the series on dogs (at -60% blood pressure), the “Mixed Venous Oxygen Tension PvO2” value came to 49.9 ± 3.1 mmHg, the “Mixed Venous pH (pH-v)” value is recorded as 7.275 ± 0.016, the “Pulmonary Artery Pressure PAM” value is on record as 12.4 ± 3.4 mmHg and the “Pulmonary Capillary Wedge Pressure PCWP” value came out at 6.2 ± 2.2 mmHg. Also, in the series on dogs (result in words), the “effect on arterial pH / venous pH” value was “significantly decrease arterial pH or have a tendency to decrease arterial pH”; the “effect on carbonate tension” value was “almost no effects on the oxygen tension and carbonate tension”; the “effect on heart rate” value was “tendency to increase the heart rate when a 20% or less fall in blood pressure is attained”; the “effect on oxygen tension” value was “almost no effects on the oxygen tension and carbonate tension”. The “recovered blood pressure (before administration = 100%)” value with rats [2] (15 minutes) is “about 85%”. Further, the “fall in blood pressure attained before recovery” value with rats [2] (stepwise) is given as “about 55%”. The “rapidness of the recovery of blood pressure” value in the series with rats [2] (order in words) was “Ap4A>PG E1 >nitroglycerin”.
For `Nc1ncnc2c1ncn2[C@@H]1O[C@H](COP(=O)(O)OP(=O)(O)OP(=O)(O)OC[C@H]2O[C@@H](n3cnc4c(N)ncnc43)[C@H](O)[C@@H]2O)[C@@H](O)[C@H]1O` [Ap3A, diadenosine 5', 5'"-p^1,p^4 -triphosphate, reference compound], the “concentration inducing maximal platelet aggregation” value in series [3] came out at 100 µM.
On the same count and under the same terms, then collagen [reference compound], with 5 µg/kg.
Turning to `O=C1N(Cc2ccccc2)C2C[S+]3CCCC3C2N1Cc1ccccc1` (stereo not drawn) [trimethaphan, Trimethaphan], the “shortcomings / adverse effects” value was “renal insufficiency because of tubular impairment near the kidney, tachyphylaxis, tachycardia, and mydriasis after its use” in series [4]; “cardiac contractility, cardiac output, and coronary blood flow are decreased by the ganglionic blockade thereof and histamine liberation effect is increased” in series [4] (listed as Trimethaphan).
Turning to `Nc1ncnc2c1ncn2[C@@H]1O[C@H](COP(=O)(O)OP(=O)(O)O)[C@@H](O)[C@H]1O` [ADP, adenosine diphosphate, reference compound], the “concentration inducing maximal platelet aggregation” value in series [3] was determined as 10 µM.
For `FC(F)(F)C(Cl)Br` (stereo not drawn) [Halothane], in series [4], the “shortcomings / adverse effects” value is “hepatotoxicity and sthenia of brain pressure”.
`CCCCCCCCCCCCCCCCOCC(COP(=O)([O-])OCC[N+](C)(C)C)OC(C)=O` (stereo not drawn) [PAF, reference compound]: the “concentration inducing maximal platelet aggregation” value in series [3] was determined as 0.19 µM.

The values are drawn from patent US5380715A, “Ap4 A as a hypotensive agent” (Fujirebio Inc., priority 1992, dated 1995).
